The values below are quoted from earlier work in publication PMC12308805, “Ultrahigh-Throughput Virtual Screening Strategies against PPI Targets: A Case Study of STAT Inhibitors” (Journal of Chemical Information and Modeling, 2025).

Square brackets hold non-standard residues; d marks the D form. Peptide text beside a SMILES is read from it. * marks the point of attachment. pY = N[C@@H](Cc1ccc(OP(=O)(O)O)cc1)C(=O)O; X1 = O=C(c1cc2cc(OP(=O)(O)O)ccc2[nH]1)*; aThr = C[C@H](O)[C@H](N)C(=O)O

The first data set relates to STAT3. Particulars: cited from earlier work.
For the compound `CC(C)C[C@H](NC(=O)c1cc2cc(OP(=O)(O)O)ccc2[nH]1)C(=O)N1CCC[C@H]1C(=O)N[C@@H](CCC(N)=O)C(=O)N[C@H](C(N)=O)[C@@H](C)O` [CHEMBL485921] (X1-LPQT-NH2), the “Type (known STAT3 active)” value is given as “Active”.

On to `CC(=O)N[C@@H](Cc1ccc(OP(=O)(O)O)cc1)C(=O)N[C@@H](CC(C)C)C(=O)N1CCC[C@H]1C(=O)N[C@@H](CCC(N)=O)C(=O)N[C@H](C(=O)N[C@H](C(N)=O)C(C)C)[C@H](C)O` [CHEMBL502473], for which the “Type (known STAT3 active)” value is “Active”.

For the compound `CC(=O)N[C@@H](Cc1ccc(OP(=O)(O)O)cc1)C(=O)N[C@H]1CCc2cccc3c2N(C1=O)[C@H](C(=O)N[C@@H](CCC(N)=O)C(=O)N[C@H](C(N)=O)[C@@H](C)O)C3` [CHEMBL503765], the “Type (known STAT3 active)” value is recorded as “Active”.

For `CC(=O)N[C@@H](Cc1ccc(OP(=O)(O)O)cc1)C(=O)N[C@@H](CC(C)C)C(=O)N1CCC[C@H]1C(=O)N[C@@H](CCC(N)=O)C(=O)N[C@H](C(N)=O)[C@H](C)O` [CHEMBL505076] (Ac-[pY]LPQ[aThr]-NH2), the “Type (known STAT3 active)” value was “Active”.

On to `CC(C)C[C@H](NC(=O)/C=C/c1ccc(OP(=O)(O)O)cc1)C(=O)N1CCC[C@H]1C(=O)NCCCC(N)=O` [CHEMBL573048], for which the “Type (known STAT3 active)” value is “Active”.

With `CC(C)C[C@H](NC(=O)/C=C/c1ccc(OP(=O)(O)O)cc1)C(=O)N1CCC[C@H]1C(=O)N[C@@H](CC(N)=O)C(=O)NCc1ccccc1` [CHEMBL573901], the “Type (known STAT3 active)” value is “Active”.

With `CC(C)C[C@H](NC(=O)/C=C/c1ccc(OP(=O)(O)O)cc1)C(=O)N1C[C@H]2C[C@H]2[C@H]1C(=O)N[C@H](C)CCC(N)=O` [CHEMBL576784], the “Type (known STAT3 active)” value was “Active”.

For the compound `CC(C)C[C@H](NC(=O)/C=C/c1ccc(OP(=O)(O)O)cc1)C(=O)N1CCC[C@H]1C(=O)N[C@H](C)CCC(N)=O` [CHEMBL578635], the “Type (known STAT3 active)” value is given as “Active”.

Turning to `CC(C)C[C@H](NC(=O)/C=C/c1ccc(OP(=O)(O)O)cc1)C(=O)N1C[C@H]2C[C@H]2[C@H]1C(=O)N[C@@H](CCC(N)=O)COCc1ccccc1` [CHEMBL583727], the “Type (known STAT3 active)” value is given as “Active”.

`CC(C)C[C@H](NC(=O)/C=C/c1ccc(OP(=O)(O)O)cc1)C(=O)N1CCC[C@H]1C(=O)N[C@@H](CCC(N)=O)[C@@H](C)OCc1ccccc1` [CHEMBL583758]: the “Type (known STAT3 active)” value is on record as “Active”.

With `CC(C)C[C@H](NC(=O)/C=C/c1ccc(OP(=O)(O)O)cc1)C(=O)N1CCC[C@H]1C(=O)N[C@H](C)COC(N)=O` [CHEMBL584376], the “Type (known STAT3 active)” value is on record as “Active”.

Staying with this data set, now noted: sheet 6QHD_actives_decoys; known STAT3 actives of the retrospective screening set; ref ChEMBL / literature; cited from earlier work.
Consider `COC(=O)[C@H](CCC(N)=O)NC(=O)[C@@H]1Cc2cccc3c2N1C(=O)[C@@H](NC(=O)/C=C/c1ccc(OP(=O)(O)O)cc1)CC3` [CHEMBL503365], for which the “Type (known STAT3 active)” value is reported as “Active”.

Take `NC(=O)CC[C@H](NC(=O)[C@@H]1Cc2cccc3c2N1C(=O)[C@@H](NC(=O)/C=C/c1ccc(OP(=O)(O)O)cc1)C=C3)C(=O)NCc1ccccc1` [CHEMBL508912]: the “Type (known STAT3 active)” value was “Active”.

For the compound `NC(=O)CC[C@H](NC(=O)[C@@H]1Cc2cccc3c2N1C(=O)[C@@H](NC(=O)/C=C/c1ccc(OP(=O)(O)O)cc1)CC3)C(=O)O` [CHEMBL510008], the “Type (known STAT3 active)” value is “Active”.

With `NC(=O)C1CCN(C(=O)[C@@H]2Cc3cccc4c3N2C(=O)[C@@H](NC(=O)/C=C/c2ccc(OP(=O)(O)O)cc2)CC4)C1` (stereo partly drawn) [CHEMBL515762], the “Type (known STAT3 active)” value is reported as “Active”.

`CC(=O)NC[C@H](CCC(N)=O)NC(=O)[C@@H]1CCCN1C(=O)[C@H](CC(C)C)NC(=O)/C=C/c1ccc(OP(=O)(O)O)cc1` [CHEMBL573442]: the “Type (known STAT3 active)” value is recorded as “Active”.

With `CC(C)C[C@H](NC(=O)/C=C/c1ccc(OP(=O)(O)O)cc1)C(=O)N1C[C@H]2C[C@H]2[C@H]1C(=O)N[C@@H](CCC(N)=O)[C@@H](C)OCc1ccccc1` [CHEMBL573443], the “Type (known STAT3 active)” value is “Active”.

For `CC(C)C[C@H](NC(=O)/C=C/c1ccc(OP(=O)(O)O)cc1)C(=O)N1CCC[C@H]1C(=O)N[C@@H](CCC(N)=O)COC(N)=O` [CHEMBL573643], the “Type (known STAT3 active)” value is reported as “Active”.

`CC(C)C[C@H](NC(=O)/C=C/c1ccc(OP(=O)(O)O)cc1)C(=O)N1CCC[C@H]1C(=O)N[C@H](COCc1ccccc1)COC(N)=O` [CHEMBL573902]: the “Type (known STAT3 active)” value is given as “Active”.

Turning to `CC(C)C[C@H](NC(=O)/C=C/c1ccc(OP(=O)(O)O)cc1)C(=O)N1CCC[C@H]1C(=O)N[C@@H](CCC(N)=O)Cc1ccc(O)cc1` [CHEMBL573903], the “Type (known STAT3 active)” value is “Active”.

Regarding `CC(C)C[C@H](NC(=O)/C=C/c1ccc(OP(=O)(O)O)cc1)C(=O)N1CCC[C@H]1C(=O)N[C@@H](CCC(N)=O)COCc1ccccc1` [CHEMBL573904], the “Type (known STAT3 active)” value is listed as “Active”.

As for `CC(C)C[C@H](NC(=O)/C=C/c1ccc(OP(=O)(O)O)cc1)C(=O)N1C[C@H]2C[C@H]2[C@H]1C(=O)N[C@@H](CCC(N)=O)C(C)C` [CHEMBL573930], the “Type (known STAT3 active)” value is “Active”.

With `CC(C)C[C@H](NC(=O)/C=C/c1ccc(OP(=O)(O)O)cc1)C(=O)N1CCC[C@H]1C(=O)NCCNC(N)=O` [CHEMBL574636], the “Type (known STAT3 active)” value is on record as “Active”.

Regarding `CC(C)C[C@H](NC(=O)/C=C/c1ccc(OP(=O)(O)O)cc1)C(=O)N1C[C@H]2C[C@H]2[C@H]1C(=O)N[C@@H](CCC(N)=O)C(=O)NCc1ccccc1` [CHEMBL575497], the “Type (known STAT3 active)” value is “Active”.

As to `CC(C)C[C@H](NC(=O)/C=C/c1ccc(OP(=O)(O)O)cc1)C(=O)N1CCC[C@H]1C(=O)NCCOC(N)=O` [CHEMBL576590], the “Type (known STAT3 active)” value is given as “Active”.

As for `CC(C)C[C@H](NC(=O)/C=C/c1ccc(OP(=O)(O)O)cc1)C(=O)N1C[C@H]2C[C@H]2[C@H]1C(=O)NCCCC(N)=O` [CHEMBL577143], the “Type (known STAT3 active)” value is “Active”.

As for `CCCC[C@H](CCC(N)=O)NC(=O)[C@@H]1[C@@H]2C[C@@H]2CN1C(=O)[C@H](CC(C)C)NC(=O)/C=C/c1ccc(OP(=O)(O)O)cc1` [CHEMBL583116], the “Type (known STAT3 active)” value is given as “Active”.

Regarding `CC(C)C[C@H](NC(=O)/C=C/c1ccc(OP(=O)(O)O)cc1)C(=O)N1C[C@H]2C[C@H]2[C@H]1C(=O)N[C@@H](CCC(N)=O)[C@@H](C)O` [CHEMBL583725], the “Type (known STAT3 active)” value is given as “Active”.

Regarding `CC(=O)OC[C@H](CCC(N)=O)NC(=O)[C@@H]1[C@@H]2C[C@@H]2CN1C(=O)[C@H](CC(C)C)NC(=O)/C=C/c1ccc(OP(=O)(O)O)cc1` [CHEMBL583726], the “Type (known STAT3 active)” value is reported as “Active”.

`CC(C)C[C@H](NC(=O)/C=C/c1ccc(OP(=O)(O)O)cc1)C(=O)N1C[C@H]2C[C@H]2[C@H]1C(=O)NCCOCc1ccccc1` [CHEMBL583728]: the “Type (known STAT3 active)” value is recorded as “Active”.

`CC(C)C[C@H](NC(=O)[C@H](Cc1ccc(O)cc1)NC(=O)[C@H]1CCCN1C(=O)CN)C(=O)N1CCC[C@H]1C(=O)N[C@@H](CCC(N)=O)C(=O)N[C@H](C(=O)N[C@H](C(N)=O)C(C)C)[C@H](C)O` [CHEMBL2367507] (H-G[dP]YLPQ[aThr]V-NH2): the “Type (known STAT3 active)” value was “Active”.

The data set is the same for the next values; noted with them: sheet 6QHD_actives_decoys; retrospective screening set for STAT3 SH2 domain (PDB 6QHD); decoys generated with DUD-E and presumed inactive, not tested; ref DUD-E; cited from earlier work.
For the compound `Nc1nc(OCc2cc(Br)cs2)c2ncn(CCCCCCCCO[C@@H]3O[C@@H](CO)[C@@H](O)[C@@H](O)[C@@H]3O)c2n1` [Decoy329], the Type entry is “Inactive (Decoy)”.

As to `Nc1nc(OCc2cc(Br)cs2)c2ncn(CCCCCCCCO[C@@H]3O[C@@H](CO)[C@@H](O)[C@@H](O)[C@H]3O)c2n1` [Decoy330], the Type entry was “Inactive (Decoy)”.
